Columns and labels:
[1] = target: T1, Bromodomain-containing protein 3 (Homo sapiens, UniProt Q15059); test: Binding affinity to BRD3 containing BD1 bromodomains (unknown origin) by TR-FRET assay
[2] = target: T2, Bromodomain testis-specific protein (Homo sapiens, UniProt Q58F21); test: Binding affinity to BRDt containing BD2 bromodomains (unknown origin) by TR-FRET assay
[3] = Distribution coefficient, log D of the compound at pH 7.4 by chromatographic method; format: physicochemical; conditions: octanol/water
[4] = physchem; conditions: phosphate buffered saline, pH 7.4, solubility
Description: Solubility of the compound in phosphate buffered saline at pH 7.4 after 1 hr by CLND method

[5] = target: T3, Transcription initiation factor TFIID subunit 1 (Homo sapiens, UniProt P21675); test: Binding affinity to TAF1 (unknown origin) by BROMOscan panel based assay
T3 sequence (P21675 whole entry): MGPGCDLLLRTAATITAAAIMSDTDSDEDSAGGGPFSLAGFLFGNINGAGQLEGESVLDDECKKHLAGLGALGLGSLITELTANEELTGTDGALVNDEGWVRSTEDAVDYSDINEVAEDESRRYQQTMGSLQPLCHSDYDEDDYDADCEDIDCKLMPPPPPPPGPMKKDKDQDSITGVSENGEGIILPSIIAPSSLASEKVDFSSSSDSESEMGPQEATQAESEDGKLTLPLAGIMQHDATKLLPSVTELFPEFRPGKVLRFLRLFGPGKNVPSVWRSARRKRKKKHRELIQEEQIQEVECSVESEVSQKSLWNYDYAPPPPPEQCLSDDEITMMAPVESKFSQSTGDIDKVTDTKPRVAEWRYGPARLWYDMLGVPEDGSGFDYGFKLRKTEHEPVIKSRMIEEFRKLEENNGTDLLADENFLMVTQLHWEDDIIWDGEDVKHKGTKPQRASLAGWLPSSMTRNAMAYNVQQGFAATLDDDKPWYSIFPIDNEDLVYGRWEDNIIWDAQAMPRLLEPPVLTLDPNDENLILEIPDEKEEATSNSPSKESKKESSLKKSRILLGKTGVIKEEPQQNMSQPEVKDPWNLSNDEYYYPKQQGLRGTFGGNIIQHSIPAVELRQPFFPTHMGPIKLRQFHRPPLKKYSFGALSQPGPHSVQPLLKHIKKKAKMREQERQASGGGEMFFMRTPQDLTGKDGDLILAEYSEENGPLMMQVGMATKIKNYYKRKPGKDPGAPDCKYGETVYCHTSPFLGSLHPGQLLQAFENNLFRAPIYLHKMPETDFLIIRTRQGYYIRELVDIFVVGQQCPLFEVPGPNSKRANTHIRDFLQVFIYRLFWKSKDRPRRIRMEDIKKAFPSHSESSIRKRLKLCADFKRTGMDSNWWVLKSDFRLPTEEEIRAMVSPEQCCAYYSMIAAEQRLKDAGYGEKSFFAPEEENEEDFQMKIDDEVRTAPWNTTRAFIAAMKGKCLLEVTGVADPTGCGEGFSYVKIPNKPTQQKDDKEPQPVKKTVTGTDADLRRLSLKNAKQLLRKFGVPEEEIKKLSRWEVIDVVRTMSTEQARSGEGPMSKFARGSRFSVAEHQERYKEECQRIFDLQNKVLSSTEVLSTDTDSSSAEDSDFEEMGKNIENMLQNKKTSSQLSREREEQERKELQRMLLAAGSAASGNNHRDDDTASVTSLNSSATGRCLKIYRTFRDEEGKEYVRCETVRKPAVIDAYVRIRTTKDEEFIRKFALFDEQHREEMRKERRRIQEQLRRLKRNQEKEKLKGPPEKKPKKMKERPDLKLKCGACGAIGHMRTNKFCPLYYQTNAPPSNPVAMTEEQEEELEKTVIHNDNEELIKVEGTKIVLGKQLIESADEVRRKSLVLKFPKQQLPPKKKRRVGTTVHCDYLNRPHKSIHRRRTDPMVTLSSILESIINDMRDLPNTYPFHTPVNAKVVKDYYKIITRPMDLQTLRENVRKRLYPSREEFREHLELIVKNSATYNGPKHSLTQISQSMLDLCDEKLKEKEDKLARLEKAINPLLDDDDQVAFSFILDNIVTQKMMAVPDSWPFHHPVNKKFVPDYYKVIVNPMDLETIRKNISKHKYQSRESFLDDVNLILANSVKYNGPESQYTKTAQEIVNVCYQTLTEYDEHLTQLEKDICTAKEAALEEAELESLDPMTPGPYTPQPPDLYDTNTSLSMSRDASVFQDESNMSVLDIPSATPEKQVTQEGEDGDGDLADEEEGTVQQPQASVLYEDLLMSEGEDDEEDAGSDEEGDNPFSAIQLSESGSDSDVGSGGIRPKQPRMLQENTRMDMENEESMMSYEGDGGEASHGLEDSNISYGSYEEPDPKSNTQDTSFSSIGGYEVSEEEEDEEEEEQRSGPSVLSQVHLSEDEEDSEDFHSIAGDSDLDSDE

[6] = target: T1, Bromodomain-containing protein 3; test: Binding affinity to BRD3 containing BD2 bromodomains (unknown origin) by TR-FRET assay
[7] = target: T4, Bromodomain-containing protein 2 (Homo sapiens, UniProt P25440); test: Binding affinity to BRD2 containing BD1 bromodomains (unknown origin) by TR-FRET assay
T4 sequence (P25440 whole entry): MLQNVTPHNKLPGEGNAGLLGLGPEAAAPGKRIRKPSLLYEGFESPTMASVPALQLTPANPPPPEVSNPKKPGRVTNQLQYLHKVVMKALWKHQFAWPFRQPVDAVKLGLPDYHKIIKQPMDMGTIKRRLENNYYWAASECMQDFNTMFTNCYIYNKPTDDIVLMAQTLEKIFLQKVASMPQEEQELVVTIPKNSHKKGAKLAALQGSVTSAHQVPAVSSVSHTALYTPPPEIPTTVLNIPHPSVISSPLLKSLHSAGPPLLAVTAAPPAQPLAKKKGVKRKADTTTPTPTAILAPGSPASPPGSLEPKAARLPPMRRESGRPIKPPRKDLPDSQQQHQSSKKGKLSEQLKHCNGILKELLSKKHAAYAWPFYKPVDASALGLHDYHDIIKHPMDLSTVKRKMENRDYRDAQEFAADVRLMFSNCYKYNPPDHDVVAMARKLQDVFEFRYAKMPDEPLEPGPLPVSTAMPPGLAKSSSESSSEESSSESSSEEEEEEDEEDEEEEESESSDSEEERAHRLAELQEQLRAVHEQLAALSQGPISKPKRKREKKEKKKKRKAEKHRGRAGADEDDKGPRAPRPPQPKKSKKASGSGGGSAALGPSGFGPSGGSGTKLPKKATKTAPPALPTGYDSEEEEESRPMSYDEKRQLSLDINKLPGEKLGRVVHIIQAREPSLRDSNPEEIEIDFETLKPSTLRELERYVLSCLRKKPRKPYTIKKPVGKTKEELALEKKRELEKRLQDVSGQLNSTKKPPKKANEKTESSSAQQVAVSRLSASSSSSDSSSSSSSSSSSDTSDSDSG

[8] = target: T4, Bromodomain-containing protein 2; test: Binding affinity to BRD2 containing BD2 bromodomains (unknown origin) by TR-FRET assay
[9] = target: T3, Transcription initiation factor TFIID subunit 1; test: Binding affinity to TAF1 in human HUT78 cells incubated for 45 mins by mass spectrometry based bromosphere chemoproteomic assay; format: cell-based
[10] = target: T2, Bromodomain testis-specific protein; test: Binding affinity to BRDt containing BD1 bromodomains (unknown origin) by TR-FRET assay
[11] = target: T5, Peregrin (Homo sapiens, UniProt P55201); test: Binding affinity to BRPF1 in human HUT78 cells incubated for 45 mins by mass spectrometry based bromosphere chemoproteomic assay; format: cell-based
T5 sequence (P55201 whole entry): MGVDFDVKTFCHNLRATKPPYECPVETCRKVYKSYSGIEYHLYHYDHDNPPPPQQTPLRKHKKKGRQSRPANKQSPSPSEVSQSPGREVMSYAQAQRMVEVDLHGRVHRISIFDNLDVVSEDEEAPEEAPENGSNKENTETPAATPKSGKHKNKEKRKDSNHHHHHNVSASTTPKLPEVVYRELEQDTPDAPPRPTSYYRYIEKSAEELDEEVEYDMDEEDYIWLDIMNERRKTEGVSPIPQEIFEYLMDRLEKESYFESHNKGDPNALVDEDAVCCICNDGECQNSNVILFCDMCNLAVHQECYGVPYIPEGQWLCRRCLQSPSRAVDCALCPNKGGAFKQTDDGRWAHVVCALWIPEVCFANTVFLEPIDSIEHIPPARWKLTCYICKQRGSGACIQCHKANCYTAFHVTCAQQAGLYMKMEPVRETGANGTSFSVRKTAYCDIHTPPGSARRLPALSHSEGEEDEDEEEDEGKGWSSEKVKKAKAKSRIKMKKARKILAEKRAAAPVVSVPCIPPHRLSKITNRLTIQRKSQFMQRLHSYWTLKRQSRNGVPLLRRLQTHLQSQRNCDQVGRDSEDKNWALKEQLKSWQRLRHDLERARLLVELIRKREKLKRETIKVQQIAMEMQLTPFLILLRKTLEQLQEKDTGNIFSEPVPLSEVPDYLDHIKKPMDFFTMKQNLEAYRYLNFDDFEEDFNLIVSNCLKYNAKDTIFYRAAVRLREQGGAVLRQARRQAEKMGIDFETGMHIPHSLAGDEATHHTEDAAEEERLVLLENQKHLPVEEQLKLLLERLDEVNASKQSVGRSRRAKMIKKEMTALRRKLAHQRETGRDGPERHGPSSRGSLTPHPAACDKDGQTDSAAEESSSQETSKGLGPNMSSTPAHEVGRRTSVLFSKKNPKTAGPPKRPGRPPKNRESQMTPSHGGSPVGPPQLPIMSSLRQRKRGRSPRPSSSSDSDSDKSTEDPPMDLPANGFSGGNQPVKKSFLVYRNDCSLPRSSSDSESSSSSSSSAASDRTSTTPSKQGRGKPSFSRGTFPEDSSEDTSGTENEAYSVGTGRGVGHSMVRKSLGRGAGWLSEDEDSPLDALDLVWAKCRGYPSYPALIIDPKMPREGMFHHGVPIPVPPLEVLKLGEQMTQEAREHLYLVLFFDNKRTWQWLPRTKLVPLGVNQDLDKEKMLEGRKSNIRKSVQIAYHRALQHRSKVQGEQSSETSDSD

[12] = target: Bromodomain-containing protein 7 (Homo sapiens, UniProt Q9NPI1); test: Binding affinity to BRD7 in human HUT78 cells incubated for 45 mins by mass spectrometry based bromosphere chemoproteomic assay; format: cell-based
[13] = target: Protein polybromo-1 (Homo sapiens, UniProt Q86U86); test: Binding affinity to PBRM1 in human HUT78 cells incubated for 45 mins by mass spectrometry based bromosphere chemoproteomic assay; format: cell-based
[14] = target: Histone acetyltransferase KAT2B (Homo sapiens, UniProt Q92831); test: Binding affinity to KAT2B in human HUT78 cells incubated for 45 mins by mass spectrometry based bromosphere chemoproteomic assay; format: cell-based
[15] = target: Chromatin remodeling regulator CECR2 (Homo sapiens, UniProt Q9BXF3); test: Binding affinity to CECR2 (unknown origin) by BROMOscan panel based assay
[16] = target: T6, Bromodomain-containing protein 4 (Homo sapiens, UniProt O60885); test: Binding affinity to BRD4 in human HUT78 cells incubated for 45 mins by mass spectrometry based bromosphere chemoproteomic assay; format: cell-based
[17] = target: T6, Bromodomain-containing protein 4; test: Binding affinity to BRD4 containing BD1 bromodomains (unknown origin) by TR-FRET assay
[18] = target: Nucleosome-remodeling factor subunit BPTF (Homo sapiens, UniProt Q12830); test: Binding affinity to BPTF in human HUT78 cells incubated for 45 mins by mass spectrometry based bromosphere chemoproteomic assay; format: cell-based
[19] = target: Bromodomain adjacent to zinc finger domain protein 2A (Homo sapiens, UniProt Q9UIF9); test: Binding affinity to BAZ2A in human HUT78 cells incubated for 45 mins by mass spectrometry based bromosphere chemoproteomic assay; format: cell-based
[20] = target: T1, Bromodomain-containing protein 3; test: Binding affinity to BRD3 in human HUT78 cells incubated for 45 mins by mass spectrometry based bromosphere chemoproteomic assay; format: cell-based
[21] = target: T6, Bromodomain-containing protein 4; test: Binding affinity to BRD4 containing BD2 bromodomains (unknown origin) by TR-FRET assay
[22] = target: T5, Peregrin; test: Binding affinity to BRPF1 (unknown origin) by BROMOscan panel based assay
[23] = target: SWI/SNF-related matrix-associated actin-dependent regulator of chromatin subfamily A member 4 (Homo sapiens, UniProt P51532); test: Binding affinity to SMARCA4 in human HUT78 cells incubated for 45 mins by mass spectrometry based bromosphere chemoproteomic assay; format: cell-based
[24] = target: T4, Bromodomain-containing protein 2; test: Binding affinity to BRD2 in human HUT78 cells incubated for 45 mins by mass spectrometry based bromosphere chemoproteomic assay; format: cell-based
[25] = target: Bromodomain-containing protein 4 (Homo sapiens, UniProt O60885, Y390A)
[26] = target: ATPase family AAA domain-containing protein 2B (Homo sapiens, UniProt Q9ULI0); test: Binding affinity to ATAD2B (unknown origin) by BROMOscan panel based assay
Chain of ATPase family AAA domain-containing protein 2B (Q9ULI0 whole entry, the tested form may be a part): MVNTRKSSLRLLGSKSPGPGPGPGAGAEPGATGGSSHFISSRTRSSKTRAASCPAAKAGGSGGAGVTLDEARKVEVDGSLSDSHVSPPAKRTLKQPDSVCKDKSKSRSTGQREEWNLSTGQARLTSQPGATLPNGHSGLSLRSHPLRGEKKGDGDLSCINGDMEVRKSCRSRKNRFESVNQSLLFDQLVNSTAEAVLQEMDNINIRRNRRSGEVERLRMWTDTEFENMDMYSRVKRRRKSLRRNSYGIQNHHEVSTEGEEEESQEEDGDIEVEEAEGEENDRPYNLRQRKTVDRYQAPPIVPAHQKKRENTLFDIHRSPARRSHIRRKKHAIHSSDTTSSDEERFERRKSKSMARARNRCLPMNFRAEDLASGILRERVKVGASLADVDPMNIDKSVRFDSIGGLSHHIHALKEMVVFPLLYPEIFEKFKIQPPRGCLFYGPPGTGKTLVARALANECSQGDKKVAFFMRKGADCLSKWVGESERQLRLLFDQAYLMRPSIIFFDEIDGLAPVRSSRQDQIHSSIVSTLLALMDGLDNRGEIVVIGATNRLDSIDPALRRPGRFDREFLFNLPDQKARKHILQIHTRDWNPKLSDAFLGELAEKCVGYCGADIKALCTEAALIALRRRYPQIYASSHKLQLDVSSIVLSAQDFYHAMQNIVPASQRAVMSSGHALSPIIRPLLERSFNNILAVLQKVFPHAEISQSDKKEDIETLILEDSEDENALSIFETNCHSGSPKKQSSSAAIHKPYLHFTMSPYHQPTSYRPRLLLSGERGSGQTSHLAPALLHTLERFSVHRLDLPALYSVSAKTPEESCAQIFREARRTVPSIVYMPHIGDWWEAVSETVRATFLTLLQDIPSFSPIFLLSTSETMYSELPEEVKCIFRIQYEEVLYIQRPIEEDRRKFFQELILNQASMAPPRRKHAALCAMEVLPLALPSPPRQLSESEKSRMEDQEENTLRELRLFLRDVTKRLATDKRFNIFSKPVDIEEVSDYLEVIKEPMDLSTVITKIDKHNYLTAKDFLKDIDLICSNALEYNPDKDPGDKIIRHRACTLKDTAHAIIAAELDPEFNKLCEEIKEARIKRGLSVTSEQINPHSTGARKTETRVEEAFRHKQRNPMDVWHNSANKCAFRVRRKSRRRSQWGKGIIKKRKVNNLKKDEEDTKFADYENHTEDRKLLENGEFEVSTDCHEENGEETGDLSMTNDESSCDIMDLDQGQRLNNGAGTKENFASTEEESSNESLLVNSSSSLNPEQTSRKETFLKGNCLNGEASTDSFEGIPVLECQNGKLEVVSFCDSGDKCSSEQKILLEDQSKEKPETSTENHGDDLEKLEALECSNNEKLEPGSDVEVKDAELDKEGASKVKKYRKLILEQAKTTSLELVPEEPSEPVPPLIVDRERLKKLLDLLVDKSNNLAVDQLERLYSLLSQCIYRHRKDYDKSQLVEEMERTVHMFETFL

T1 sequence (Q15059 whole entry): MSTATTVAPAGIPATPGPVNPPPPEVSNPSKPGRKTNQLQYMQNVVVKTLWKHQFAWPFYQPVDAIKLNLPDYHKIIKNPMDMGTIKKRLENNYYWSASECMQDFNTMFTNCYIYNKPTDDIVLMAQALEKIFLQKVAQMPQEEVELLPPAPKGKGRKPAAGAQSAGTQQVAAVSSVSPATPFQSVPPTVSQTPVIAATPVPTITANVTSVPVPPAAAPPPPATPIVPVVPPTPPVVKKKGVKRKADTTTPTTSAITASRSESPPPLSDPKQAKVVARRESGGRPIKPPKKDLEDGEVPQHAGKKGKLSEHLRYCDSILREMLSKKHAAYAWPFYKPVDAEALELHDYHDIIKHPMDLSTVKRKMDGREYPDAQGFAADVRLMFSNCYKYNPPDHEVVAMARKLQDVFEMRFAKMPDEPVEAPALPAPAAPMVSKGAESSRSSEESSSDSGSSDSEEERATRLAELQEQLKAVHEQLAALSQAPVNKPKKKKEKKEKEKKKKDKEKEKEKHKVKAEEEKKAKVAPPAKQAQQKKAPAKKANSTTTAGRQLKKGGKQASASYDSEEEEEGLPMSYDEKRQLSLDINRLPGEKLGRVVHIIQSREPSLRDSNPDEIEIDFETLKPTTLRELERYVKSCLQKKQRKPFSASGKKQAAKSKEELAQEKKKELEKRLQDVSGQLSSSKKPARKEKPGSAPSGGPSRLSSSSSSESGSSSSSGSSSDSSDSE

Cc1cncc(-c2cnc(N[C@@H]3CCN(C)C[C@H]3OCC3CCS(=O)(=O)CC3)c3[nH]c(=O)c(C)cc23)c1
IC50 [1]: > 50.1 µM
IC50 [2]: > 50.1 µM
chromatographic logD [3]: 2.3
solubility kinetic at 1 h [4]: ≥ 341 µM
Ki [5]: 0.0501 µM
IC50 [6]: > 50.1 µM
IC50 [7]: > 50.1 µM
IC50 [8]: > 50.1 µM
Kd [9]: 1.26 µM
IC50 [10]: > 50.1 µM
Kd [11]: > 100 µM
Kd [12]: 31.6 µM
Kd [13]: > 100 µM
Kd [14]: > 100 µM
Ki [15]: 0.794 µM
Kd [16]: 20 µM
IC50 [17]: 79.4 µM
Kd [18]: > 100 µM
Kd [19]: > 100 µM
Kd [20]: > 100 µM
IC50 [21]: > 501 µM
Ki [22]: 5.01 µM
Kd [23]: 20 µM
Kd [24]: 20 µM
IC50 [25]: 79.4 µM
Ki [26]: 0.0398 µM

Reference: ChEMBL document CHEMBL3588744, “Structure-Based Optimization of Naphthyridones into Potent ATAD2 Bromodomain Inhibitors” (J Med Chem, 2015)
